Assays:
Format in all cases: physicochemical
[1] = Stability of the crystalline form versus humidity (powder X-ray diffraction)
Protocol: The analyses are carried out on a Bruker D8 diffractometer having a copper-anticathode tube equipped with a front monochromator (wavelength of the copper Kα1 line: 1.54060 Å). The arrangement is of Bragg-Brentano type, with a point scintillation detector. The angular range swept extends from 2 to 40 degrees 2θ with a step of 0.02 degrees 2θ. The counting time is 120 seconds per step.
Form C of (3R,4R)-4-[3-(S)-hydroxy-3-(6-methoxyquinolin-4-yl)propyl]-1-[2-(2-thienylthio)ethyl]piperidine-3-carboxylic acid is a monohydrate form. It is stable at 25° C. and at the degree of ambient humidity. It is particularly stable between 50% and 100% humidity.

[2] = Stability of the crystalline form in alcohol/water mixtures; conditions: methanol/water or ethanol/water (1/1 by volume), after 30 days
Protocol: by stirring a suspension of form A at a temperature of 20° C.-25° C., in tetrahydrofuran/demineralized water (50/50 by volume), methyl ethyl ketone/demineralized water (80/20 by volume to 20/80 by volume), acetonitrile/demineralized water (50/50 by volume to 20/80 by volume) or ethanol or methanol/demineralized water (50/50 by volume) mixtures, for 5 days to about 30 days.

[3] = Loss in mass on heating below 50% humidity (dehydration); conditions: between 25° C. and 75° C., 1 mole of water/mole of the acid, dehydration to form B
Protocol: Below 50% humidity, a loss in mass of 3.7% by weight is recorded between 25° C. and 75° C. (1 mole of water/mole of the acid). This loss in mass corresponds to the dehydration of the form C to give another form of (3R,4R)-4-[3-(S)-hydroxy-3-(6-methoxyquinolin-4-yl)propyl]-1-[2-(2-thienylthio)ethyl]piperidine-3-carboxylic acid, hereinafter known as form B.

| Structure (SMILES) | humidity up to which the form is stable ([1]; humidity) | stability of the crystalline form in solvent mixture [2] | loss in mass [3] | stability of the crystalline form ([1]; 25° C., ambient humidity) | stability by powder X-ray diffraction ([1]; 97% humidity, 20° C., after 11 weeks) |
| --- | --- | --- | --- | --- | --- |
| COc1ccc2nccc([C@@H](O)CC[C@@H]3CCN(CCSc4cccs4)C[C@@H]3C(=O)O)c2c1 [Form B, (3R,4R)-4-[3-(S)-hydroxy-3-(6-methoxyquinolin-4-yl)propyl]-1-[2-(2-thienylthio)ethyl]piperidine-3-carboxylic acid] | up to 30% |  |  |  |  |
| COc1ccc2nccc([C@@H](O)CC[C@@H]3CCN(CCSc4cccs4)C[C@@H]3C(=O)O)c2c1 [Form C, (3R,4R)-4-[3-(S)-hydroxy-3-(6-methoxyquinolin-4-yl)propyl]-1-[2-(2-thienylthio)ethyl]piperidine-3-carboxylic acid] |  | stable | 3.7 % by weight | stable | stability in the monohydtrate form |

Source: US20040147554A1, “Crystalline form of (3R,4R)-4-[3-(S)-hydroxy-3-(6-methoxy-quinolin-4-yl)propyl]-1-[2-2thienylthio)ethyl] piperidine-3-carboxylic acid” (Aventis Pharms S.A., priority 2002, published 2004)
